Columns and labels:
[1] = target: Fibroblast growth factor receptor 2 (Homo sapiens) (UniProt P21802); assay: Binding affinity to wild-type human partial length FGFR2 (D457 to E769 residues) expressed in bacterial expression system assessed as residual binding level at 1 uM by Kinomescan method relative to control
[2] = target: ALK tyrosine kinase receptor (Homo sapiens) (UniProt Q9UM73); assay: Binding affinity to wild-type human partial length ALK (I1088 to E1409 residues) expressed in mammalian expression system assessed as residual binding level at 1 uM by Kinomescan method relative to control
[3] = target: Serine/threonine-protein kinase PAK 6 (Homo sapiens) (UniProt Q9NQU5); assay: Binding affinity to wild-type human partial length PAK6 (N298 to C681 residues) expressed in bacterial expression system assessed as residual binding level at 1 uM by Kinomescan method relative to control
[4] = target: Cyclin-dependent kinase 18 (Homo sapiens) (UniProt Q07002); assay: Binding affinity to wild-type human full length PCTK3 (M3 to F474 residues) expressed in bacterial expression system assessed as residual binding level at 1 uM by Kinomescan method relative to control
[5] = test system: Proto-oncogene tyrosine-protein kinase receptor Ret (Homo sapiens), P07949 [M918T]; assay: Binding affinity to human partial length RET M918T mutant (E713 to D1014 residues) expressed in bacterial expression system assessed as residual binding level at 1 uM by Kinomescan method relative to control
[6] = target: Myosin light chain kinase (Homo sapiens) (UniProt Q32MK0); assay: Binding affinity to wild-type human partial length MLCK (D488 to K800 residues) expressed in bacterial expression system assessed as residual binding level at 1 uM by Kinomescan method relative to control
[7] = target: Bone morphogenetic protein receptor type-1B (Homo sapiens) (UniProt O00238); assay: Binding affinity to wild-type human partial length BMPR1B (D178 to L502 residues) expressed in mammalian expression system assessed as residual binding level at 1 uM by Kinomescan method relative to control
[8] = target: Serine/threonine-protein kinase STK11 (Homo sapiens) (UniProt Q15831); assay: Binding affinity to wild-type human full length LKB1 (M1 to Q433 residues) expressed in bacterial expression system assessed as residual binding level at 1 uM by Kinomescan method relative to control
[9] = target: Serine/threonine-protein kinase PRP4 homolog (Homo sapiens) (UniProt Q13523); assay: Binding affinity to wild-type human partial length PRP4 (D657 to I1007 residues) expressed in bacterial expression system assessed as residual binding level at 1 uM by Kinomescan method relative to control
[10] = target: Mitogen-activated protein kinase 10 (Homo sapiens) (UniProt P53779); assay: Binding affinity to wild-type human partial length JNK3 (V28 to Q422 residues) expressed in mammalian expression system assessed as residual binding level at 1 uM by Kinomescan method relative to control
[11] = target: Aurora kinase B (Homo sapiens) (UniProt Q96GD4); assay: Binding affinity to wild-type human partial length AURKB (D25 to A303 residues) expressed in mammalian expression system assessed as residual binding level at 1 uM by Kinomescan method relative to control
[12] = target: Angiopoietin-1 receptor (Homo sapiens) (UniProt Q02763); assay: Binding affinity to wild-type human partial length TIE2 (N804 to T1112 residues) expressed in bacterial expression system assessed as residual binding level at 1 uM by Kinomescan method relative to control
[13] = target: Calcium/calmodulin-dependent protein kinase kinase 2 (Homo sapiens) (UniProt Q96RR4); assay: Binding affinity to wild-type human partial length CAMKK2 (D65 to V471 residues) expressed in bacterial expression system assessed as residual binding level at 1 uM by Kinomescan method relative to control
[14] = target: Serine/threonine-protein kinase PLK3 (Homo sapiens) (UniProt Q9H4B4); assay: Binding affinity to wild-type human partial length PLK3 (A42 to L334 residues) expressed in mammalian expression system assessed as residual binding level at 1 uM by Kinomescan method relative to control
[15] = target: Ankyrin repeat and protein kinase domain-containing protein 1 (Homo sapiens) (UniProt Q8NFD2); assay: Binding affinity to wild-type human partial length ANKK1 (M1 to A305 residues) expressed in mammalian expression system assessed as residual binding level at 1 uM by Kinomescan method relative to control
[16] = target: Serine/threonine-protein kinase pim-3 (Homo sapiens) (UniProt Q86V86); assay: Binding affinity to wild-type human partial length PIM3 (G16 to A317 residues) expressed in bacterial expression system assessed as residual binding level at 1 uM by Kinomescan method relative to control
[17] = target: Casein kinase I isoform alpha-like (Homo sapiens) (UniProt Q8N752); assay: Binding affinity to wild-type human full length CSNK1A1L (M1 to N337 residues) expressed in bacterial expression system assessed as residual binding level at 1 uM by Kinomescan method relative to control
[18] = target: TRAF2 and NCK-interacting protein kinase (Homo sapiens) (UniProt Q9UKE5); assay: Binding affinity to wild-type human partial length TNIK (D4 to K311 residues) expressed in bacterial expression system assessed as residual binding level at 1 uM by Kinomescan method relative to control
[19] = target: Ephrin type-B receptor 1 (Homo sapiens) (UniProt P54762); assay: Binding affinity to wild-type human partial length EPHB1 (P589 to T911 residues) expressed in bacterial expression system assessed as residual binding level at 1 uM by Kinomescan method relative to control
[20] = target: Serine/threonine-protein kinase Nek2 (Homo sapiens) (UniProt P51955); assay: Binding affinity to wild-type human partial length NEK2 (M1 to K309 residues) expressed in bacterial expression system assessed as residual binding level at 1 uM by Kinomescan method relative to control
[21] = target: Bone morphogenetic protein receptor type-1A (Homo sapiens) (UniProt P36894); assay: Binding affinity to wild-type human partial length BMPR1A (Q214 to I532 residues) expressed in bacterial expression system assessed as residual binding level at 1 uM by Kinomescan method relative to control
[22] = target: Cyclin-dependent kinase 13 (Homo sapiens) (UniProt Q14004); assay: Binding affinity to wild-type human partial length CDC2L5 (H675 to S1054 residues) expressed in mammalian expression system assessed as residual binding level at 1 uM by Kinomescan method relative to control
[23] = target: Protein kinase C iota type (Homo sapiens) (UniProt P41743); assay: Binding affinity to wild-type human partial length PRKCI (H215 to V587 residues) expressed in mammalian expression system assessed as residual binding level at 1 uM by Kinomescan method relative to control
[24] = target: Ephrin type-B receptor 2 (Homo sapiens) (UniProt P29323); assay: Binding affinity to wild-type human partial length EPHB2 (I597 to L902 residues) expressed in bacterial expression system assessed as residual binding level at 1 uM by Kinomescan method relative to control
[25] = target: Cyclin-dependent kinase 3 (Homo sapiens) (UniProt Q00526); assay: Binding affinity to wild-type human full length CDK3 (M1 to H305 residues) expressed in bacterial expression system assessed as residual binding level at 1 uM by Kinomescan method relative to control
Sequence of Cyclin-dependent kinase 3 (Homo sapiens) (Q00526 whole entry, looked up, the tested form may be a part): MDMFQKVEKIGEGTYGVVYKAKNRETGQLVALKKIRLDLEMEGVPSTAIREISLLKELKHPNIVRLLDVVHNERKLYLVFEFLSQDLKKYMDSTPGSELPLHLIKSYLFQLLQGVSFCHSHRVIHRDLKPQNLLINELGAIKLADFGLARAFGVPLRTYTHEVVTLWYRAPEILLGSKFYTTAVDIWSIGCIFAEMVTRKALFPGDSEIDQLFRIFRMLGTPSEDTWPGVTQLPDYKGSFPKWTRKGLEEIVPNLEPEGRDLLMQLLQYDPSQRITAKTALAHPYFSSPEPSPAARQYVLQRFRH

Sequence of Serine/threonine-protein kinase PLK3 (Homo sapiens) (Q9H4B4 whole entry, looked up, the tested form may be a part): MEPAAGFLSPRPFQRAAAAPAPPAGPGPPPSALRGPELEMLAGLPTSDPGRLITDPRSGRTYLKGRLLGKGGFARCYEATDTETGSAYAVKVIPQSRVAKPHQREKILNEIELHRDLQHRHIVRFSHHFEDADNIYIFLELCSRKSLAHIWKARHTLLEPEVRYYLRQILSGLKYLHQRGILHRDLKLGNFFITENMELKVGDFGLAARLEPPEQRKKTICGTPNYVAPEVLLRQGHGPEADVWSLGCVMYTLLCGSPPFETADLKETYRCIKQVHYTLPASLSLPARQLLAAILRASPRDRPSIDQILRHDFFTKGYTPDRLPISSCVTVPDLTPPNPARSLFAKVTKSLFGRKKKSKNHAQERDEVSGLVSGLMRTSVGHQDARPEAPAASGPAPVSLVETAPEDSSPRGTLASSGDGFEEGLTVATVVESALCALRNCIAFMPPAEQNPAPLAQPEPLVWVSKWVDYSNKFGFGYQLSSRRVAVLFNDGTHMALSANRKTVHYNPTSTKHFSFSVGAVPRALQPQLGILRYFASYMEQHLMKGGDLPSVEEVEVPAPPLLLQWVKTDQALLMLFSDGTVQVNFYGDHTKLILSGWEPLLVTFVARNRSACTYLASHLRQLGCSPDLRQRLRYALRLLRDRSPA
Sequence of Serine/threonine-protein kinase PAK 6 (Homo sapiens) (Q9NQU5 whole entry, looked up, the tested form may be a part): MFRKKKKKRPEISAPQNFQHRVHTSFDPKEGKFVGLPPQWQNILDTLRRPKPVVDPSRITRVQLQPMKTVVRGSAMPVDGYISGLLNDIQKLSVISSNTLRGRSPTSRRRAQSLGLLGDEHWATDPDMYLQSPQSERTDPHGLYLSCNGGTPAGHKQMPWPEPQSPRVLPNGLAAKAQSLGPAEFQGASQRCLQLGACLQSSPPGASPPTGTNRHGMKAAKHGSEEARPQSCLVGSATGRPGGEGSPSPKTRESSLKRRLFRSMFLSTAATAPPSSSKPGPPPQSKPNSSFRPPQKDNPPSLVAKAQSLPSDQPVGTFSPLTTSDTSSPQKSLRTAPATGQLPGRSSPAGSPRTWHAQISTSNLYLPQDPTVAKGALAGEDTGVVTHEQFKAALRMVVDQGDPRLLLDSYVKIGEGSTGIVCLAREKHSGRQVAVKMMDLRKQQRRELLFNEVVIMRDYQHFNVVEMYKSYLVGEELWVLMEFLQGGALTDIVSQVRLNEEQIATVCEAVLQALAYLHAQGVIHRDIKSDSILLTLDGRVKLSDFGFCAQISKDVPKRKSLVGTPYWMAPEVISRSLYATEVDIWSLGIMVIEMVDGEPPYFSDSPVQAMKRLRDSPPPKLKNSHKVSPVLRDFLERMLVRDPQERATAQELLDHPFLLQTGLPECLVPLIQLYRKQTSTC
Sequence of Serine/threonine-protein kinase PRP4 homolog (Homo sapiens) (Q13523 whole entry, the tested form may be a part): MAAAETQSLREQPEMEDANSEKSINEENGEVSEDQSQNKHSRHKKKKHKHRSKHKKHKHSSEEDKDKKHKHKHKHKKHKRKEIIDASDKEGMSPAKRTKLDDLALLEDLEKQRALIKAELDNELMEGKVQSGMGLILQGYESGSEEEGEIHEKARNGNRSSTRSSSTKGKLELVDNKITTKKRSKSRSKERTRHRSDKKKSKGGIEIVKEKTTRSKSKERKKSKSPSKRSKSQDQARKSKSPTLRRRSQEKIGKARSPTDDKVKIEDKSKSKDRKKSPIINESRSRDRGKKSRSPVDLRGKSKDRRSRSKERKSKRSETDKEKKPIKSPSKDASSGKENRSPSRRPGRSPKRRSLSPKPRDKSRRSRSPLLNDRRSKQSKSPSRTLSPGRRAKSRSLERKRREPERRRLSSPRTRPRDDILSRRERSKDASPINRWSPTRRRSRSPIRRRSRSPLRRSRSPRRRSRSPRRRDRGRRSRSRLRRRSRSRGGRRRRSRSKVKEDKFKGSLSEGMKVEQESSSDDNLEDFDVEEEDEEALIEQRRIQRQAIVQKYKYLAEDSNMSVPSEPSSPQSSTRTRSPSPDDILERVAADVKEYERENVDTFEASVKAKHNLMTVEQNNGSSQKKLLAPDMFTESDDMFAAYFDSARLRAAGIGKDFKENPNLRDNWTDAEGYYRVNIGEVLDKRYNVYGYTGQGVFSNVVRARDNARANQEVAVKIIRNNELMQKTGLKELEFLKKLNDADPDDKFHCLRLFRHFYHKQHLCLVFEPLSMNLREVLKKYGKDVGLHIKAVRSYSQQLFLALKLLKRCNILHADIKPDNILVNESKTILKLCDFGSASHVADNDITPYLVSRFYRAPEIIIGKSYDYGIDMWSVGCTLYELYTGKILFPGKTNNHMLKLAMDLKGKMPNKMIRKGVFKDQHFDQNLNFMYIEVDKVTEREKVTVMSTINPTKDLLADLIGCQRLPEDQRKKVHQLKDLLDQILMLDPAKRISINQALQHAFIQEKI
Sequence of Protein kinase C iota type (Homo sapiens) (P41743 whole entry, the tested form may be a part): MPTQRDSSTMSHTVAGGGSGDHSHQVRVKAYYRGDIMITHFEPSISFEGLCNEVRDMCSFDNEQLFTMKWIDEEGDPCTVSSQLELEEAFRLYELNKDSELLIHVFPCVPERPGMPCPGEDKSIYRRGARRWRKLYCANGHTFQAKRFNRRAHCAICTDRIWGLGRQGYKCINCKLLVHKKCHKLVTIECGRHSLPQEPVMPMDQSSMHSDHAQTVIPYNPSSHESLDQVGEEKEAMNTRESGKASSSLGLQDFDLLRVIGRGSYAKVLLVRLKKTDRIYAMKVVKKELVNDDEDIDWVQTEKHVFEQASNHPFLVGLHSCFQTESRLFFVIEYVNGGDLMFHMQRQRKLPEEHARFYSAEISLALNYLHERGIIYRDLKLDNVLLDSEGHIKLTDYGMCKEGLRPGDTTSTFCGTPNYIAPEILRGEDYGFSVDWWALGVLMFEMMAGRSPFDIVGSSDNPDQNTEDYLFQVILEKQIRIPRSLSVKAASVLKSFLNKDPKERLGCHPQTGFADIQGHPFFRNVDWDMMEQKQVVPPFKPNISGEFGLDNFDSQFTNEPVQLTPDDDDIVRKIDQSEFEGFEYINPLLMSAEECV
Sequence of Mitogen-activated protein kinase 10 (Homo sapiens) (P53779 whole entry, the tested form may be a part): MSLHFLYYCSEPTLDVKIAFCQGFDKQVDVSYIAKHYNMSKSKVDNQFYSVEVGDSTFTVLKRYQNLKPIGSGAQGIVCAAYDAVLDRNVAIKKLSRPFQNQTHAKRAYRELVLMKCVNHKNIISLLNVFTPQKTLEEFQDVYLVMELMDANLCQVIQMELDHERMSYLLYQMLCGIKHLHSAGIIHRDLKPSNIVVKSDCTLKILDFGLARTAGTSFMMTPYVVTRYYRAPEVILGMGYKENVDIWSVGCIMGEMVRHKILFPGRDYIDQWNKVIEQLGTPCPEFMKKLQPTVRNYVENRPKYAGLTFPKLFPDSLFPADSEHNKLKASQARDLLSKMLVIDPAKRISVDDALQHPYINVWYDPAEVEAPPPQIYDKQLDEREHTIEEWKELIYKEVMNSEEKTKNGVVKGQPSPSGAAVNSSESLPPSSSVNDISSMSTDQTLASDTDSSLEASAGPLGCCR
Sequence of Casein kinase I isoform alpha-like (Homo sapiens) (Q8N752 whole entry, the tested form may be a part, canonical isoform): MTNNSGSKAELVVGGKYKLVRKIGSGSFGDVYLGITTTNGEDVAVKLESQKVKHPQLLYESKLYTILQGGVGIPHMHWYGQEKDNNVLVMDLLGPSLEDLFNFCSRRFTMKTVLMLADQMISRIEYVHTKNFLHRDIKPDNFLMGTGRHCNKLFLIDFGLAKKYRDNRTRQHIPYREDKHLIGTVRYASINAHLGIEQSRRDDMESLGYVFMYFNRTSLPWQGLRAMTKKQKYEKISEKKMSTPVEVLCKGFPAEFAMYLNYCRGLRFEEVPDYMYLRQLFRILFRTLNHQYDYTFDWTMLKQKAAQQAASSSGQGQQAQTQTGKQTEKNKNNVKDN
Sequence of Bone morphogenetic protein receptor type-1B (Homo sapiens) (O00238 whole entry, the tested form may be a part): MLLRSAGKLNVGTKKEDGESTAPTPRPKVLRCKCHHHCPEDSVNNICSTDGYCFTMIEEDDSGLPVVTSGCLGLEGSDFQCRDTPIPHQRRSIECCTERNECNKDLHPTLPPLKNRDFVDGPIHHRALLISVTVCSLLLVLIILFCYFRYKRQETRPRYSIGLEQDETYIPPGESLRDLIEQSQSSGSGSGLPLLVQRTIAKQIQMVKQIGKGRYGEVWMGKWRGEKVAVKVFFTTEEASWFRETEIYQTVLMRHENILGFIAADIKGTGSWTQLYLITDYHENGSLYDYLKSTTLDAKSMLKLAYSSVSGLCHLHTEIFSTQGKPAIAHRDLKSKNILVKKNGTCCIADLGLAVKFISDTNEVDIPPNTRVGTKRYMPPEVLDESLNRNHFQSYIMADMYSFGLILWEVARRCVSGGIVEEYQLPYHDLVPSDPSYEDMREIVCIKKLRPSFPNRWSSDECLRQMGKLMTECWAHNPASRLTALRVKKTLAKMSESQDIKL

CC(C)Nc1sc(C(=O)c2ccc(Cl)s2)c(N)c1C#N
Activity [1]: 99%
Activity [2]: 100%
Activity [3]: 79%
Activity [4]: 100%
Activity [5]: 86%
Activity [6]: 71%
Activity [7]: 94%
Activity [8]: 89%
Activity [9]: 100%
Activity [10]: 100%
Activity [11]: 100%
Activity [12]: 96%
Activity [13]: 76%
Activity [14]: 85%
Activity [15]: 68%
Activity [16]: 86%
Activity [17]: 91%
Activity [18]: 62%
Activity [19]: 96%
Activity [20]: 85%
Activity [21]: 100%
Activity [22]: 84%
Activity [23]: 100%
Activity [24]: 79%
Activity [25]: 89%

Reference: ChEMBL document CHEMBL4330132, “5-Keto-3-cyano-2,4-diaminothiophenes as selective maternal embryonic leucine zipper kinase inhibitors” (Bioorg Med Chem Lett, 2019)
